# pIC50: −log10 of the molar value.
# Tested on: Jurkat FADD (−/−) Cells
# Test: TNF-α induced necroptosis of Jurkat FADD-deficient cells (CellTiter-Glo cell survival)
# Format: cell-based, human
# Conditions: Homo sapiens; TNF-α induced necroptosis, Jurkat FADD-deficient cells, 13 hours, CellTiter-Glo; read-out: IC50
# Procedure, shortened: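 Cells in RPMI 1640 with 10% FBS were pretreated for 1 h at 37 °C with compound (12-point threefold series from 25 μM, or 0.5 μM, in triplicate). They were then stimulated with TNFα added as a 5 ng/mL solution for 13 h. Survival was read by luminescence.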
row,SMILES,pIC50
1,"CN1C(=O)[C@@H](NC(=O)c2nnc(Cc3ccccc3)[nH]2)Cn2cc(-c3cn(C)nc3-c3ccccc3)c3cccc1c32 [T-122, (S)-5-benzyl-N-(1-methyl-7-(1-methyl-3-phenyl-1H-pyrazol-4-yl)-2-oxo-1,2,3,4-tetrahydro-[1,4]diazepine [3,2,1-hi]indol-3-yl)-4H-1,2,4-triazole-3-carboxamide]",7.00 to 8.00
2,"CN1C(=O)C(NC(=O)c2nnc(Cc3ccccc3)[nH]2)Cc2cn(CC(N)=O)c3cccc1c23 (racemic) [T-31, (±)-N-(6-(2-amino-2-oxoethyl)-1-methyl-2-oxo-2,3,4,6-tetrahydro-1H-azacyclo [4,3,2-cd]indol-3-yl)-5-benzyl-4H-1,2,4-triazole-3-carboxamide]",6.00 to 7.00
3,"CCOc1cccnc1-n1cc2c3c(cccc31)N(C)C(=O)C(NC(=O)c1nnc(Cc3ccccc3)[nH]1)C2 (racemic) [T-67, (±)-5-benzyl-N-(6-(3-ethoxypyridin-2-yl)-1-methyl-2-oxy-2,3,4,6-tetrahydro-1H-azacyclo [4,3,2-cd]indol-3-yl)-4H-1,2,4-triazole-3-carboxamide]",> 8.00
4,"CN1C(=O)C(NC(=O)c2nnc(Cc3ccccc3)[nH]2)Cc2cn(-c3ncccc3S(C)(=O)=O)c3cccc1c23 (racemic) [T-68, (±)-5-benzyl-N-(1-methyl-6-(3-(methylsulfonyl)pyridin-2-yl)-2-oxo-2,3,4,6-tetrahydro-1H-azepine [4,3,2-cd]indol-3-yl)-4H-1,2,4-triazole-3-carboxamide]",> 8.00
5,"CN1C(=O)C(NC(=O)c2nnc(Cc3ccccc3)[nH]2)Cn2cc(-c3cccnc3)c3cccc1c32 (racemic) [T-17, (±)-5-benzyl-N-(1-methyl-2-oxo-7-(pyridin-3-yl)-1,2,3,4-tetrahydro-[1,4]diazepino [3,2,1-hi]indol-3-yl)-4H-1,2,4-triazole-3-carboxamide]",7.00 to 8.00
6,"COC(=O)c1cc(-n2cc3c4c(cccc42)N(C)C(=O)C(NC(=O)c2nnc(Cc4ccccc4)[nH]2)C3)cn1C (racemic) [T-100, (±)-methyl4-(3-(5-benzyl-4H-1,2,4-triazole-3-carboxamide)-1-methyl-2-oxo-1,2,3,4-tetrahydro-6H-azacyclo [4,3,2-cd]indol-6-yl)-1-methyl-1H-pyrrole-2-carboxylate]",7.00 to 8.00
7,"CN1C(=O)C(NC(=O)c2nnc(Cc3ccccc3)[nH]2)CN2CCc3cccc1c32 (racemic) [T-14, (±)-5-benzyl-N-(1-methyl-2-oxo-1,2,3,4,6,7-hexahydro-[1,4]diazepino [3,2,1-hi]indol-3-yl)-4H-1,2,4-triazole-3-carboxamide]",7.00 to 8.00
8,"CN1C(=O)C(NC(=O)c2nnc(Cc3ccccc3)[nH]2)Cc2cn(-c3ncccc3CO)c3cccc1c23 (racemic) [T-49, (±)-5-benzyl-N-(6-(3-(hydroxymethyl)pyridin-2-yl)-1-methyl-2-oxo-2,3,4,6-tetrahydro-1H-azacyclo [4,3,2-cd]indol-3-yl)-4H-1,2,4-triazole-3-carboxamide]",> 8.00
9,"COc1cccc(OC)c1-c1cn2c3c(cccc13)N(C)C(=O)C(NC(=O)c1nnc(Cc3ccccc3)[nH]1)C2 (racemic) [T-85, (±)-5-benzyl-N-(7-(2,6-dimethoxyphenyl)-1-methyl-2-oxo-1,2,3,4-tetrahydro-[1,4]diazepino [3,2,1-hi]indol-3-yl)-4H-1,2,4-triazole-3-carboxamide]",6.00 to 7.00
10,"CN1C(=O)[C@@H](NC(=O)c2nnc(Cc3ccccc3)[nH]2)Cn2cc(-c3cncs3)c3cccc1c32 [T-123, (S)-5-benzyl-N-(1-methyl-2-oxo-7-(thiazol-5-yl)-1,2,3,4-tetrahydro-[1,4]diazepine [3,2,1-hi]indol-3-yl)-4H-1,2,4-triazole-3-carboxamide]",7.00 to 8.00
11,"COCc1cccc(-c2cn3c4c(cccc24)N(C)C(=O)C(NC(=O)c2nnc(Cc4ccccc4)[nH]2)C3)c1 (racemic) [T-80, (±)-5-benzyl-N-(7-(3-(methoxymethyl)phenyl)-1-methyl-2-oxo-1,2,3,4-tetrahydro-[1,4]diazepino [3,2,1-hi]indol-3-yl)-4H-1,2,4-triazole-3-carboxamide]",7.00 to 8.00

# Source: patent US20250049812A1, “Compounds that Inhibit Necroptosis and Their Preparation Methods” (SHANGHAI INSTITUTE OF ORGANIC CHEMISTRY, CHINESE ACADEMY OF …, priority 2021, published 2025)
